{"source": "patent US20210177722A1", "about": "“Phytic Acid Ester Derivative” (NATIONAL UNIVERSITY CORPORATION KUMAMOTO UNIVERSITY, priority 2018, published 2021)", "test_system": "S1T cell (ATL cell line) tumor", "assay": "Effect on HTLV-1 infected cell-transplanted mouse (ATL model)", "type": "in vivo", "settings": "day 28 after transplantation, 20 mg/kg per day intraperitoneally for 28 days, NSG mice with S1T cells", "source_text": "In this example, the in vivo effect of Pro-IP6 on an HTLV-1 infected cell-transplanted mouse was checked. HTLV-1 (human T cell leukemia virus 1) mainly infects CD4-positive T lymphocyte, and when the infected cell cancerates, refractory malignant tumor, adult T-cell leukemia (ATL) is caused. In this example, S1T cell, that is, one of ATL cell lines, was used.\n5-Week-old female NSG mice (NOD. Cg-Prkdc scid I12rg tm1Wjl/SzJ, Charles River Laboratories Japan, Inc.) were used. Five mice each in each of two cages, namely, ten mice in total, were raised with sterilized bedding (Pepar Clean: Japan SLC, Inc.) placed in a sterilized cage (Clea Japan, Inc.). […]\nThe control group was dosed with DMSO, and the IP6 administration group and the pro-IP6 administration group were intraperitoneally dosed respectively with IP6 in an amount of 7.1 mg/kg and pro-IP6 in an amount of 20 mg/kg. The mice were dosed continuously for 28 days after the day of the cell transplantation, and the weight and the tumor volume of each mouse were measured every day. The tumor volume was defined as (shorter diameter in mm)^2×(longer diameter in mm)×0.5, and the shorter diameter and the longer diameter were measured with a caliper. […] Subsequently, the tumor was totally removed, and the tumor volume and the tumor weight of each tumor were measured.", "data": [{"smiles": "CCCC(=O)OCOP(=O)(OCOC(=O)CCC)O[C@H]1[C@H](OP(=O)(OCOC(=O)CCC)OCOC(=O)CCC)[C@@H](OP(=O)(OCOC(=O)CCC)OCOC(=O)CCC)[C@H](OP(=O)(OCOC(=O)CCC)OCOC(=O)CCC)[C@@H](OP(=O)(OCOC(=O)CCC)OCOC(=O)CCC)[C@H]1OP(=O)(OCOC(=O)CCC)OCOC(=O)CCC", "note": "[Pro-IP6, myo-inositol hexaphosphate dodecakis(butyryloxymethyl) ester]", "values": [{"measurement": "tumor volume smaller as compared with that of the control group", "result": "about 25%"}]}]}
